Experimental data: patent US10870872B2, “Enzymatic nucleic acid synthesis” (President and Fellows of Harvard College, priority 2016, dated 2020)

Experiments:
TdT [1] = target: T1, TdT (Homo sapiens, UniProt P04053); test: Screen of nucleotide analogue substrates for TdT-based DNA synthesis (NPU formulation with Apyrase); format: biochemical; conditions: for behavior with respect to TdT-based DNA synthesis (extension efficiency, rate, extension length distribution): natural nucleotides; for efficiency as substrate of TdT versus natural counterpart: analogues more positively charged than natural counterparts
T1 sequence (P04053 whole entry, species assumed): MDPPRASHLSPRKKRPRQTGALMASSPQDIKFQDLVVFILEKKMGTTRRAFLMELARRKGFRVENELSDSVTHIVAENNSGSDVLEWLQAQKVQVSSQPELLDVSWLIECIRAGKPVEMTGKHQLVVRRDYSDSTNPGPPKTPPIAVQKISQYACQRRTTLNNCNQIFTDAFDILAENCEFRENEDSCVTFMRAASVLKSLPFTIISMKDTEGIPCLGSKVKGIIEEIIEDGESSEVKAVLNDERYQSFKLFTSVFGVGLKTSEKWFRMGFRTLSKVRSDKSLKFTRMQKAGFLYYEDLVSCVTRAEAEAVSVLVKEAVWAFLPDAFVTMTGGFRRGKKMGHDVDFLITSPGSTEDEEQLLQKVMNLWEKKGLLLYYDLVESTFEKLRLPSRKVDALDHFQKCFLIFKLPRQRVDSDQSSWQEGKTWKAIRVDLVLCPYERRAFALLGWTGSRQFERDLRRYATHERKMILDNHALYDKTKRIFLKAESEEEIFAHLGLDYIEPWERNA
Source text: In the general scheme of the presently disclosed methods, the distribution of extension length by TdT is important to ensure efficient and reliable encoding of information into DNA. […] The following nucleotide analogues with the NPU formulation which included Apyrase were explored.

TdT [2] = target: T1, TdT; test: Chemical control of TdT extension by Apyrase on immobilized initiator oligo (PCR, agarose gel); format: biochemical; conditions: 0.001 U/μL Apyrase, 1 U/μL TdT, 4 minutes at room temperature
Procedure: According to an exemplary protocol of the present disclosure, an initiator oligonucleotide was first immobilized onto a surface, for example with the use of a 5 prime modified oligonucleotide onto aldehyde functionalized glass slides. After tethering the initiator to a solid support, the surface was treated to neutralize the chemical reactive groups such as aldehydes in this case, and to increase hydrophobicity.
Dilutions of nucleotides in solvents such as water or ethanol of the following concentration and types were prepared:
Each of these nucleotides were printed on an oligo spot with a liquid handling robot followed by printing of the enzymatic mix comprising TdT (Terminal deoxynucleotidyl transferase) and Apyrase. […]
Each of the synthesized DNA strands were released off the solid-support surface, in this exemplary embodiment, enzymatically, by the use of USER (Uracil-Specific Excision Reagent) enzyme which cleaves the uracils that are near the 5 prime distal end of the initial initiator oligonucleotide. These strands were subsequently PCR amplified and the number of synthesized nucleotides were evaluated by two methods: electrophoresis on agarose or PAGE gels for cursory bulk analysis and sequenced with next-generation sequencing platforms such as Illumina, Pacific Bioscience, and/or Oxford Nanopore for quantitative single-molecule analysis. […]

Compound | behavior with respect to TdT-based DNA synthesis (extension efficiency, rate, extension length distribution) (TdT [1]) | efficiency as substrate of TdT versus natural counterpart (TdT [1]) | further results
Nc1ncnc2c1ncn2[C@H]1C[C@H](O)[C@@H](COP(=O)(O)OP(=O)(O)OP(=O)(O)O)O1 [dATP] | poorest behavior |  | 
Nc1ccn([C@H]2C[C@H](O)[C@@H](COP(=O)(O)OP(=O)(O)OP(=O)(O)O)O2)c(=O)n1 [dCTP] | most optimal behavior |  | 
NC/C=C/c1cn(C2CC(O)C(COP(=O)(O)OP(=O)(O)OP(=O)(O)O)O2)c(=O)[nH]c1=O (stereo not drawn) [5-Aminoallyl-dUTP] |  | far more efficient substrates of TdT | 
Apyrase |  |  | effect on average amount of extension by TdT (TdT [2]): effectively limited the average amount of extension by TdT
NCC#Cc1cn(C2CC(O)C(COP(=O)(O)OP(=O)(O)OP(=O)(O)O)O2)c(=O)[nH]c1=O (stereo not drawn) [5-Propargylamino-dUTP] |  | far more efficient substrates of TdT | 
Cc1cn([C@H]2C[C@H](O)[C@@H](COP(=O)(O)OP(=O)(O)OP(=O)(O)O)O2)c(=O)[nH]c1=O [dTTP] | poorest behavior |  | 
